Results reported in a melting point compilation (Tetko et al.; mined from patent text by program, amines drawn as free bases though some values may be those of a salt).

| Compound | melting point |
| --- | --- |
| O=C(O)c1ccc2c(c1)C(=O)C1(CC1)O2 | 215 to 228 °C |
| O=c1[nH]c2cc(Cl)ccc2c(O)c1Sc1ccccc1Cl | > 300 °C |
| COC(=O)[C@H]1CC[C@H](NC(=O)c2cc(-c3ccc(C#N)cc3)nn(Cc3ccccc3)c2=O)CC1 | 217 to 220 °C |
| CCOC(=O)CSC(=S)N1Cc2[nH]c3ccccc3c2CC1C(=O)O (centres undefined) | 190 to 192 °C |
| CCCCCCCCCCCC(=O)OCc1ccccc1-c1nc(-c2cccc(OC)c2)n[nH]1 | 45 °C |
| COc1ccc(C(=O)Nc2ccccc2)cc1CNS(=O)(=O)c1cc(Cl)cc(Cl)c1 | 203 to 206 °C |
| NS(=O)(=O)Nc1ccc(N2CCN(c3ccncc3)CC2)cc1 | 216 to 219 °C |
| CC(C)(C)c1cc(C2=C(c3cc(C(C)(C)C)c(O)c(C(C)(C)C)c3)C2=C(C#N)C#N)cc(C(C)(C)C)c1O | 280 to 281 °C |
| COC(=O)C1C=CCN2C(=O)C(CCOC3CCCCO3)(Cc3ccccc3)C(=O)N12 (centres undefined) | 113 to 114 °C |
| CC1(C)Oc2ccc(C#N)cc2[C@@H](N2CCCCC2=O)[C@@H]1O (relative stereo) | 155 °C |
| CN1CN(C2CC2)c2ccc(C(N)=O)cc2S1(=O)=O | 271 to 273 °C |
| CCOC(=O)c1ccccc1N(CC(=O)N(C)c1ccccc1)C(=O)CNC(=O)Nc1cccc(CO)c1 | 184 °C |
| O=c1c2cc(OCc3ccccc3)ccc2[nH]c2c([N+](=O)[O-])cc([N+](=O)[O-])c(Cl)c12 | 217 to 220 °C |
| Cc1nc(N)nc(N)c1-c1cc(I)ccc1Cl | 232 to 234 °C |
| COCc1cc(C(C)(C)C)cc(COC)c1SSc1c(COC)cc(C(C)(C)C)cc1COC | 94 to 95 °C |
| Fc1ccc(-c2nc(=S)c3c(o2)CCCC3)cc1 | 148 to 149 °C |
| Cc1ccc(S(=O)(=O)Nc2ccc3nc(N4CCN(C)CC4)c(N4CCN(C)CC4)nc3c2)cc1 | 234 to 237 °C |
| Cc1ncc2n1-c1ccc(Cl)cc1C(c1ccccc1F)N(O)C2 (centres undefined) | 246 to 248 °C |
| NC(=O)c1cc2ccccc2nc1N | 240 to 242 °C |
| CCc1c(OC)cc(OC)c2c1C(=O)N(CSc1nnnn1-c1ccccc1)S2(=O)=O | 162 to 164 °C |
| CCCCCCCCCCCCNc1cc(C)c(C)cc1N | 53 to 54 °C |
| CS(=O)(=O)C1CC(=O)N1CC(=O)OCc1ccccc1 (single isomer, unassigned; (+)) | 102 to 103 °C |
| COc1ccc2c(c1)C(O)=C(C(=O)Nc1cncc(Cl)n1)N(C)S2(=O)=O | 289 to 291 °C |
| Cc1cc(O)c(CC(=O)OC(C)C)cc1O | 123 °C |
| CCC(=O)NCC1CC1c1c(Br)ccc2nn(C)cc12 (centres undefined) | 119 to 121 °C |
| COc1cc(C(=O)O)ccc1Cc1cccc2ccc(CCCCC(=O)N(C)C)cc12 | 125 to 127 °C |
| CNC(=O)c1ccn2c(C(=O)N3CCNCC3)c(Cc3cccc(F)c3C)c(-c3ccccc3)c2c1 | 205 °C |

| Compound | melting point |
| --- | --- |
| CCOC(=O)C1C(=O)Nc2ccccc2SC1c1ccc(OC)cc1 (centres undefined) | 192 °C |
| Fc1ccccc1Cn1cnc2c(NC3CC3)nc(C(F)(F)F)nc21 | 118 to 119 °C |
| CCOc1nn(-c2cc(C(F)(F)F)ccn2)cc1CCCOc1cccc(OC(C)(C)C(=O)O)c1 | 98 to 99 °C |
| COC(=O)c1cccc(-c2cn(C)cc(-n3cccn3)c2=O)c1 | 144 °C |
| COc1ccc(-c2[nH]c3ccccc3c(=O)c2C(=O)O)cc1 | > 300 °C |
| CCn1ncc2nc(C#N)c(OCCC(C)C)nc21 | 78 to 80 °C |
| CC(C)n1nc(-c2sc(N)nc2-c2ccc(F)cc2)ccc1=O | 256 to 257 °C |
| COc1ccc2cc(C(C)(O)C(=O)O)ccc2c1 (centres undefined) | 150 to 152 °C |
| COC1C(NC(=O)C(F)(F)F)CC(OC2CC(O)(CO)Cc3c(O)c4c(c(O)c32)C(=O)c2ccccc2C4=O)OC1C (centres undefined) | 262 to 263 °C |
| CC(C)Nc1cc(-c2nc[nH]n2)nc(Cl)c1-c1c(F)cccc1Cl | 152 °C |
| O=C(COc1ccccc1)NC1C(=O)N2C(C(=O)OCc3ccc([N+](=O)[O-])cc3)=C(O)CCC12 (centres undefined) | 160 to 162 °C |
| CCCCCCc1cc2c(s1)-n1c(C)nnc1CN=C2c1ccc(C)cc1C | 99 to 101 °C |
| O=C(O)C1C2CCC(=O)C21 (centres undefined) | 110 to 115 °C |
| COc1ccc2c(c1)C(CCNC(C)=O)C1(CC2)Cc2ccccc2C1 (centres undefined) | 139 to 141 °C |
| CC(Nc1nc(Oc2cccc3[nH]c(=O)c(N)nc23)cc(-c2ccc(C(F)(F)F)cc2)n1)c1ccc(F)cc1 (centres undefined) | 434 °C |
| Cc1ccc(NC(=O)c2ccccc2)c(C(=O)O)c1 | 205 to 208 °C |
| CNC(=O)/C(=N/OC)c1ccccc1COc1ccc(-c2ccccc2)cc1 | 136 to 137 °C |
| CC(C)n1c(=O)c2cc(C(=O)O)cn2c2ccccc21 | 238 to 240 °C |
| CCCCOC(=O)COc1ccc(C(=O)Nc2cc(C)ccc2Sc2ccccc2-c2nnn[nH]2)cc1 | 146 to 148 °C |
| CC(C)C(NC(=O)OC(C)(C)C)C(=O)NC(C(=O)OCC1OC(n2cc(C=CBr)c(=O)[nH]c2=O)CC1Cl)C(C)C (centres undefined) | 102 to 103 °C |
| CCCCc1nnc(C(=O)N(C)Cc2ccccc2)n1Cc1ccc(-c2ccccc2C#N)cc1 | > 40 °C |
| CCOC(=O)c1cnc(Nc2ccccc2OC(C)C)[nH]c1=O | 205 to 207 °C |
| Cc1nc2ccccc2c2c1OCCN2 | 203 to 204 °C |
| O=C(NC1CCCCC1)NS(=O)(=O)c1ccc(CCNC(=O)N2CC3CCCCC3C2=O)cc1 (centres undefined) | 139 to 140 °C |
| CC(C)(C)[Si](C)(C)Oc1ccc(C(=O)O)cc1C12CC3CC(CC(C3)C1)C2 | 250 to 252 °C |
| O=C(CCc1ccc(NC2=NCCN2)cc1)c1ccc(N2CCOCC2)cc1 | 196 to 198 °C |
| CCCCc1nc2cc(Cl)cc(C(=O)O)c2n1Cc1ccc(-c2ccccc2-c2nnn[nH]2)cc1 | 232 to 234 °C |

The next lines start with the values.

| melting point | Compound |
| --- | --- |
| 95 to 98 °C | CC1=C(C(=O)OC(C)C)C(c2cccc([N+](=O)[O-])c2)C(C(=O)OC2CN(C(c3ccccc3)c3ccccc3)C2)=C(N)N1 (centres undefined) |
| 88 to 91 °C | CS(=O)c1ccc(-n2cnc3ccc(-c4nnc(SCc5cccc(C(F)(F)F)c5)o4)cc32)cc1 (centres undefined) |
| 179 °C | CC(=O)OC1CSC(Oc2ccc(-c3ccncc3)cc2F)C(OC(C)=O)C1OC(C)=O (centres undefined) |
| 135 to 139 °C | CC(=O)Nc1ccc(C2COC(=O)O2)cn1 (centres undefined) |
| 256 to 258 °C | CCCn1c(=O)c2c(NC)n[nH]c2n(CCc2ccccc2)c1=O |
| 225 to 228 °C | NC(=O)CN1C(=O)[C@@H](N)[C@H](c2ccccc2)Sc2cc(Cl)ccc21 (relative stereo) |
| 57 to 60 °C | CCOC(=O)C(C(=O)C(C)C)C(CC(=O)C(C)C)c1ccc(F)cc1 (centres undefined) |
| 85 to 86 °C | CCCc1ccccc1OCCCOc1ccc2c(=O)cc(C#N)oc2c1 |
| 150 °C | CCC(CC)/C(N)=C(\C)C#N |
| 217 to 218 °C | O=C(O)CCc1oc(-n2cnc3ccccc32)nc1-c1ccc(Cl)cc1 |
| 247 to 249 °C | CC(C)(C)C(NC(=O)c1ccc(Cl)cc1)Nc1c(Nc2ccc(F)cc2)c(=O)c1=O (centres undefined) |
| 100 to 101 °C | Cn1nc(C(F)(F)F)cc1N |
| 115 to 117 °C | CC(C)(C)OC(=O)N1CCN(c2c(F)cc(N3CC(CN=[N+]=[N-])OC3=O)cc2F)CC1 (centres undefined) |
| 75 to 77 °C | CCCCCCCCCCCC(=O)Nc1cc([N+](=O)[O-])ccc1F |
| 150 to 152 °C | O=C1C2CC(c3ccc([N+](=O)[O-])cc3)(C2)C(=O)N1Cc1ccccc1 |
| 43 to 44.5 °C | O=C(CCc1cccnc1)C12CC3CC(CC(C3)C1)C2 |
| 213 °C | CC(C)n1nc(-c2cnc(N)nc2-c2cccs2)ccc1=O |
| 233 to 235 °C | COc1ccc(Cn2cnc(=O)c3[nH]c(C(C)C)nc32)cc1OCc1ccccc1 |
| 88 to 90 °C | COc1ccc(C(=O)n2c(C)c(Cc3cc(=O)n(C4CCCCC4)[nH]3)c3cc(OC)ccc32)cc1 |
| 150 to 151 °C | CCOC(=O)C1CCN2C(=O)C(=O)c3cc(Br)cc1c32 (centres undefined) |

| melting point | Compound |
| --- | --- |
| 81 °C | COC(=O)c1cccc(CCC(=O)O)c1 |
| 209 °C | O=C(Nc1ccc(Oc2c(Cl)cc(C(F)(F)F)c(Cl)c2Cl)cc1Cl)Nc1nonc1-c1ccccc1 |
| 296 °C | O=c1c(-c2ccc(F)cc2)coc2cc(O)c(O)cc12 |
| 143 to 145 °C | O=C1N(Cc2ccc(C(F)(F)F)o2)c2ccccc2C12COc1ccc(Br)cc12 (centres undefined) |
| 146 to 149 °C | CCOC(=O)C1=C(NC(=O)Nc2cc(C(=O)OC(C)C)c(Cl)cc2F)CCC1 |
| 153 to 160 °C | COc1cc2c(cc1S(=O)(=O)Cl)CCN(C(C)=O)CC2 |
| 209 to 210 °C | Cc1cc2c(-c3ccccc3)c(CO)n(C)c(=O)c2cc1C |
| 82 to 83 °C | CCOc1ccc(OCc2ccc(OCc3nc(-c4ccccc4)oc3C)cc2)cc1CC(=O)OC |
| 252 °C | CCc1ccc2c(c1)C=Cc1cc(C)ccc1C2c1cn(-c2ccnc(N3CC(C(=O)Nc4nnn[nH]4)C3)n2)c(=O)[nH]c1=O (centres undefined) |
| 176 to 178 °C | CNc1c(NCCSCc2ccc(CN(C)C)o2)c(=O)c1=O |
| 98 to 100 °C | COc1nn(CC(=O)C2CC2)c(=O)s1 |
| 188 to 189 °C | CC(C)(C)c1cc(CCc2ccccc2NC(=O)NCC2(c3ccc4c(c3)OCO4)CCCC2)cc(C(C)(C)C)c1O |
| 140 to 144 °C | CC(C)C(NC(=O)C(Cc1ccccc1)NC(=O)c1ccc(NS(=O)(=O)c2ccc(C(C)(C)C)cc2)cc1)C(=O)Nc1n[nH]c(=S)s1 (centres undefined) |
| 198 to 200 °C | CCCOc1ccc(S(=O)(=O)N2CCN(Cc3ccccc3)CC2)cc1-c1nc2cc(Cl)c([N+](=O)[O-])cc2c(=O)[nH]1 |
| > 300 °C | Cc1nn(C)c2nc(N)[nH]c(=O)c2c1=O |
| 231 °C | Cc1cc2c(cc1C)C(c1ccccc1Cl)C(=O)N2 (centres undefined) |
| 150 to 152 °C | CCOc1ccccc1CNc1c(C#N)ccnc1C(N)=O |
| 110 to 112 °C | C1=CSC(Sc2ccccc2)(c2ccc(Sc3ccccc3)s2)C1 (centres undefined) |
| 88 to 90 °C | COc1cc(OC)nc(Sc2sccc2NC(=O)C(F)(F)F)n1 |
| 119 to 120 °C | Cc1c(C)c2c(c(C)c1NC(=O)CC(C)(C)C)C(c1ccc(CCCO)cc1)CO2 (centres undefined) |
